# Measured values published in ChEMBL document CHEMBL4819111, “Steroidal alkaloids isolated from Veratrum grandiflorum Loes. as novel Smoothened inhibitors with anti-proliferation effects on DAOY medulloblastoma cells” (Bioorg Med Chem, 2021).
# What was measured:
# [1] = biological target: Protein smoothened (Homo sapiens) (UniProt Q99835); assay: Binding affinity to recombinant human Flag-6 x His-tagged Smo expressed in human HEK293T cells assessed as reduction in BODIPY-Cyclopamine binding by measuring fluorescence intensity at 3 uM incubated for 2 to 4 hrs by fluorescence microscopic competitive binding analysis relative to control; format: cell-based; design: scale not given: the % may be the effect or the level left; settings: time 2-4 hrs
# [2] = Inhibition of hedgehog pathway in mouse Shh Light II cells transfected with Renilla luciferase and firefly luciferase incubated for 48 hrs by dual luciferase reporter gene assay; format: cell-based
# Daoy [3] = assay: Antiproliferative activity against human DAOY cells assessed as cell viability at 10 to 30 uM incubated for 24 hrs by MTT assay relative to control; format: functional; settings: dose 10-30 µM
# Daoy [4] = assay: Antiproliferative activity against human DAOY cells assessed as cell viability at 0.2 uM incubated for 24 hrs by MTT assay relative to control; format: functional; settings: read-out: Activity
# [5] = biological target: Protein smoothened (Homo sapiens) (UniProt Q99835); assay: Binding affinity to recombinant human Flag-6 x His-tagged Smo expressed in human HEK293T cells assessed as reduction in BODIPY-Cyclopamine binding by measuring fluorescence intensity at 30 uM incubated for 2 to 4 hrs by fluorescence microscopic competitive binding analysis relative to control; format: cell-based; design: scale not given: the % may be the effect or the level left; settings: time 2-4 hrs
# [6] = biological target: Protein smoothened (Homo sapiens) (UniProt Q99835); assay: Binding affinity to recombinant human Flag-6 x His-tagged Smo expressed in human HEK293T cells assessed as reduction in BODIPY-Cyclopamine binding by measuring fluorescence intensity incubated for 2 to 4 hrs by fluorescence microscopic based competitive binding analysis; format: cell-based; settings: dose 3-30 µM, time 2-4 hrs
# Daoy [7] = assay: Antiproliferative activity against human DAOY cells assessed as cell viability at 30 uM incubated for 24 hrs by MTT assay relative to control; format: functional; settings: read-out: Activity
# Daoy [8] = assay: Antiproliferative activity against human DAOY cells assessed as reduction in cell viability incubated for 24 hrs by MTT assay; format: functional, cell-based
# Protein smoothened (Homo sapiens), sequence (Q99835 whole entry): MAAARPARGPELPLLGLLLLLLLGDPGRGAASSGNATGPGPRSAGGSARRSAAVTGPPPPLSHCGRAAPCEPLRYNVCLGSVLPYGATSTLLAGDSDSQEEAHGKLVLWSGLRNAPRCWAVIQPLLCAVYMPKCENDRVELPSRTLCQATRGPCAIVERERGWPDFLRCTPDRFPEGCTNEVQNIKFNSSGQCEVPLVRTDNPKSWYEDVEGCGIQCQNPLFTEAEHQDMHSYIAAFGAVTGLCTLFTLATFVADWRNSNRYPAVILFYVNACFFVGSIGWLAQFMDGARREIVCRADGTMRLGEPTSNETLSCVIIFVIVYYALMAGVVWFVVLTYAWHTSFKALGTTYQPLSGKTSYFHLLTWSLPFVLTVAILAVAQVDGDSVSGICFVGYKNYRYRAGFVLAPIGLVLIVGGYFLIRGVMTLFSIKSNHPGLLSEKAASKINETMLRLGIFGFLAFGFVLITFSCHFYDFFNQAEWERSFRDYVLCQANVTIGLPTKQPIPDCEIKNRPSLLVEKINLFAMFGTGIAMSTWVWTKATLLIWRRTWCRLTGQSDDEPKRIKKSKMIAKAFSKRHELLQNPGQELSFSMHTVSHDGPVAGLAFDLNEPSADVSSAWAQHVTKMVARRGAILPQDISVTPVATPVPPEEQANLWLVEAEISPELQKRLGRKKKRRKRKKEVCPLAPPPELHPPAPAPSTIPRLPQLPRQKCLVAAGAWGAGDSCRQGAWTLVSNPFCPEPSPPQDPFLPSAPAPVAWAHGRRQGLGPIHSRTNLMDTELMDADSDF
Compound,IC50 [2] [nM],Activity [5] [%],Activity [6],Activity [1] [%],Activity (Daoy [3]) [%],viability at 0.2 µM (Daoy [4]) [%],viability at 30 µM (Daoy [7]) [%],IC50 (Daoy [8]) [nM],inhibition (Daoy [8])
CC1=C2C(=O)[C@H]3C(CC=C4C[C@@H](O)CC[C@@]43C)[C@@H]2CC[C@]12O[C@@H]1C[C@H](C)CN[C@H]1[C@H]2C (stereo not given in full),2350,,,22.3,79.45,,,,
C[C@H]1CC[C@@H]([C@@H](C)[C@]2(C)CCC3C2=CCC2C3CC=C3C[C@@H](O[C@@H]4O[C@H](CO)[C@@H](O)[C@H](O)[C@H]4O[C@@H]4O[C@@H](C)[C@H](O)[C@@H](O)[C@H]4O)CC[C@@]32C)NC1 (stereo not given in full),12300,,,53.3,79.45,,,,
C[C@@H]1CCN=C([C@@H](C)[C@H]2CC[C@H]3[C@@H]4CC=C5C[C@@H](O)CC[C@]5(C)[C@H]4CC[C@]23C)C1=O,5810,58.7,Dose-Dependent Effect,,79.45,,,,
CC[C@H](C)C(=O)O[C@H]1[C@H](O)[C@H]2[C@@H](CN3C[C@@H](C)CC[C@H]3[C@@]2(C)O)[C@@H]2C[C@@]34O[C@]5(O)[C@@H]([C@@H](O)[C@@H](O)[C@H]3[C@@]21O)[C@]4(C)CC[C@@H]5O,14300,69.4,,,79.45,,,,
C[C@H]1CCC([C@H](C)[C@H]2CC[C@H]3[C@@H]4CC=C5C[C@@H](O)CC[C@]5(C)[C@H]4CC[C@]23C)=NC1,3260,53.2,Dose-Dependent Effect,,79.45,,,,

# These reach a lower IC50 [2]. Values come first.
IC50 [2] [nM],Activity [5] [%],Activity [6],Compound,Activity [1] [%],Activity (Daoy [3]) [%],viability at 0.2 µM (Daoy [4]) [%],viability at 30 µM (Daoy [7]) [%],IC50 (Daoy [8]) [nM],inhibition (Daoy [8])
70,,,CS(=O)(=O)c1ccc(C(=O)Nc2ccc(Cl)c(-c3ccccn3)c2)c(Cl)c1 [VISMODEGIB],,,91.5,,,
950,42.8,,C[C@H]1CC[C@@H]2N(C1)C[C@H]1[C@@H]3C[C@H]4[C@@H](CC=C5C[C@@H](O)CC[C@@]54C)[C@@H]3C[C@H](O)[C@@H]1[C@]2(C)O,,79.45,,,,
1620,54.5,Dose-Dependent Effect,C[C@@H]1CCN=C([C@H](C)[C@H]2CC[C@H]3[C@@H]4CC=C5C[C@@H](O)CC[C@]5(C)[C@H]4CC[C@]23C)C1=O,,79.45,,,,
1110,47.1,Dose-Dependent Effect,C[C@H]1CCC([C@@H](C)[C@H]2CC[C@H]3[C@@H]4CC=C5C[C@@H](O)CC[C@]5(C)[C@H]4CC[C@]23C)=NC1 [VERAZINE],,79.45,,,,
720,45.1,,C[C@H]1CC[C@@H]2[C@@H](C)[C@H]3[C@H](C[C@H]4[C@@H]5CC=C6C[C@@H](O[C@@H]7O[C@H](CO)[C@@H](O)[C@H](O)[C@H]7O[C@@H]7O[C@@H](C)[C@H](O)[C@@H](O)[C@H]7O)CC[C@]6(C)[C@H]5CC[C@]34C)N2C1,,,,13,5350,Dose-Dependent Effect
